Experimental data: PubChem BioAssay AID1259407 (Chemical Carcinogenesis Research Information System (CCRIS), 2018)
“Also recorded” adds a separate entry of the source. Active and inactive are the calls of the source. The rule behind the calls is not given here.

Test system: CCRIS mutagenicity, Ames/micronucleus/aberration tests
Test: CCRIS mutagenicity studies
[1] = Test System: AMES SALMONELLA TYPHIMURIUM, Strain/Indicator: TA98, Metabolic Activation: NONE, Method: STANDARD PLATE

OC(c1ccc(Cl)cc1)(c1ccc(Cl)cc1)C(Cl)(Cl)Cl
mutagenic call (End Point: IN VITRO CHROMOSOMAL ABERRATIONS, Test System: CHINESE HAMSTER OVARY CELLS, Metabolic Activation: NONE): inactive; negative
mutagenic call (End Point: IN VITRO CHROMOSOMAL ABERRATIONS, Test System: CHINESE HAMSTER OVARY CELLS, Metabolic Activation: RAT, LIVER, S-9, AROCLOR 1254): inactive; negative
mutagenic call (End Point: IN VIVO MICRONUCLEUS, Test System: BONE MARROW POLYCHROMATIC ERYTHROCYTES, Species: MOUSE, Strain/Sex: SWISS/MALE, FEMALE, Route: IP 2X IN AQUEOUS SUSPENSION WITHIN 24 HR): inactive; negative

Nc1ccc(-c2cc(Cl)c(N)c(Cl)c2)cc1Cl
mutagenic call (Test System: AMES SALMONELLA TYPHIMURIUM, Strain/Indicator: TA98/1,8-DNP6, Metabolic Activation: HAMSTER, LIVER, S-9, Method: PREINCUBATION): active; positive
mutagenic call (Test System: AMES SALMONELLA TYPHIMURIUM, Strain/Indicator: TA98, Metabolic Activation: HAMSTER, LIVER, S-9, Method: PREINCUBATION): active; positive
mutagenic call (Test System: AMES SALMONELLA TYPHIMURIUM, Strain/Indicator: TA98, Metabolic Activation: NONE, Method: PREINCUBATION): active; positive
mutagenic call (Test System: AMES SALMONELLA TYPHIMURIUM, Strain/Indicator: TA100, Metabolic Activation: HAMSTER, LIVER, S-9, Method: PREINCUBATION): active; positive

Cn1c(N=[N+]=[N-])nc2c3ccccc3ccc21
mutagenic call (Test System: AMES SALMONELLA TYPHIMURIUM, Strain/Indicator: TA98(1,8-DNP6), Metabolic Activation: NONE, Method: STANDARD PLATE): active; positive
mutagenic call [1]: active; positive

CN(Cc1ccc(C(=O)O)cc1)N=O
mutagenic call (Test System: AMES SALMONELLA TYPHIMURIUM, Strain/Indicator: TA1535, Metabolic Activation: HAMSTER, LIVER, S-9, AROCLOR 1254, Method: STANDARD PLATE): inactive; negative
mutagenic call (Test System: AMES SALMONELLA TYPHIMURIUM, Strain/Indicator: TA1535, Metabolic Activation: NONE, Method: STANDARD PLATE): inactive; negative

O=C(NCCCl)Nc1ncc([N+](=O)[O-])s1
mutagenic call [1]: active; positive
mutagenic call (Test System: AMES SALMONELLA TYPHIMURIUM, Strain/Indicator: TA100, Metabolic Activation: NONE, Method: STANDARD PLATE): active; positive

c12c3c4c5c1c1c6c7c2c2c8c3c3c9c4c4c%10c5c5c1c1c6c6c%11c7c2c2c7c8c3c3c8c9c4c4c9c%10c5c5c1c1c6c6c%11c2c2c7c3c3c8c4c4c9c5c1c1c6c2c3c41
mutagenic call (End Point: In vitro chromosomal aberrations, Test System: Chinese hamster lung (CHL/IU) cells, Metabolic Activation: None): inactive; negative
mutagenic call (End Point: In vitro chromosomal aberrations, Test System: Chinese hamster lung (CHL/IU) cells, Metabolic Activation: S-9): inactive; negative
mutagenic call (End Point: In vitro micronucleus, Test System: Chinese hamster ovary (CHO) cells, Metabolic Activation: None): active; positive (material tested was fullerol, c60(oh)24); also recorded: active; positive; actual chemical tested was hydroxyl fullerene c-60
mutagenic call (End Point: In vitro micronucleus, Test System: Human Hela cells, Metabolic Activation: None): active; positive (material tested was fullerol, c60(oh)24)
mutagenic call (End Point: In vitro micronucleus, Test System: Human embryonic kidney 293 (HEK293) cells, Metabolic Activation: None): inactive; negative; actual chemical tested was hydroxyl fullerene c-60
mutagenic call (End Point: In vitro micronucleus, Test System: Human embryonic kidney cells (HEK 293), Metabolic Activation: None): active; positive (material tested was fullerol, c60(oh)24)
mutagenic call (End Point: In vitro micronucleus, Test System: Human epidermoid-like carcinoma (Hela) cells, Metabolic Activation: None): inactive; negative; actual chemical tested was hydroxyl fullerene c-60
mutagenic call (Test System: Ames Salmonella typhimurium, Strain/Indicator: TA98, Metabolic Activation: None, Method: Preincubation): inactive; negative
mutagenic call (Test System: Ames Salmonella typhimurium, Strain/Indicator: TA98, Metabolic Activation: S-9, Method: Preincubation): inactive; negative
mutagenic call (Test System: Ames Salmonella typhimurium, Strain/Indicator: TA100, Metabolic Activation: None, Method: Preincubation): inactive; negative
mutagenic call (Test System: Ames Salmonella typhimurium, Strain/Indicator: TA100, Metabolic Activation: S-9, Method: Preincubation): inactive; negative
mutagenic call (Test System: Ames Salmonella typhimurium, Strain/Indicator: TA1535, Metabolic Activation: None, Method: Preincubation): inactive; negative
mutagenic call (Test System: Ames Salmonella typhimurium, Strain/Indicator: TA1535, Metabolic Activation: S-9, Method: Preincubation): inactive; negative
mutagenic call (Test System: Ames Salmonella typhimurium, Strain/Indicator: TA1537, Metabolic Activation: None, Method: Preincubation): inactive; negative
mutagenic call (Test System: Ames Salmonella typhimurium, Strain/Indicator: TA1537, Metabolic Activation: S-9, Method: Preincubation): inactive; negative
mutagenic call (Test System: E. coli, Strain/Indicator: WP2 uvrA/pKM101, Metabolic Activation: None, Method: Preincubation): inactive; negative
mutagenic call (Test System: E. coli, Strain/Indicator: WP2 uvrA/pKM101, Metabolic Activation: S-9, Method: Preincubation): inactive; negative
mutagenic call (Test System: Gpt delta transgenic mouse primary embryo fibroblasts (MEF), Strain/Indicator: Red/gam gene mutants, Metabolic Activation: None, Method: Spi- mutation assay): active; positive

Cc1cnc2ccc3c(nc(NO)n3C)c2n1
mutagenic call [1]: active; positive
